According to PMC11625470 (Nature chemical biology, 2024):
Where two headings read alike, the source gives them in different places. One block for each molecule: values may come before it.

Tests used:
[1] = target: T1, human concentrative nucleoside transporter 3 (hCNT3) (Homo sapiens, UniProt Q9HAS3); experiment: cold competition of [3H]-ribavirin uptake in oocytes; format: cell-based
T1 sequence (Q9HAS3 1-691): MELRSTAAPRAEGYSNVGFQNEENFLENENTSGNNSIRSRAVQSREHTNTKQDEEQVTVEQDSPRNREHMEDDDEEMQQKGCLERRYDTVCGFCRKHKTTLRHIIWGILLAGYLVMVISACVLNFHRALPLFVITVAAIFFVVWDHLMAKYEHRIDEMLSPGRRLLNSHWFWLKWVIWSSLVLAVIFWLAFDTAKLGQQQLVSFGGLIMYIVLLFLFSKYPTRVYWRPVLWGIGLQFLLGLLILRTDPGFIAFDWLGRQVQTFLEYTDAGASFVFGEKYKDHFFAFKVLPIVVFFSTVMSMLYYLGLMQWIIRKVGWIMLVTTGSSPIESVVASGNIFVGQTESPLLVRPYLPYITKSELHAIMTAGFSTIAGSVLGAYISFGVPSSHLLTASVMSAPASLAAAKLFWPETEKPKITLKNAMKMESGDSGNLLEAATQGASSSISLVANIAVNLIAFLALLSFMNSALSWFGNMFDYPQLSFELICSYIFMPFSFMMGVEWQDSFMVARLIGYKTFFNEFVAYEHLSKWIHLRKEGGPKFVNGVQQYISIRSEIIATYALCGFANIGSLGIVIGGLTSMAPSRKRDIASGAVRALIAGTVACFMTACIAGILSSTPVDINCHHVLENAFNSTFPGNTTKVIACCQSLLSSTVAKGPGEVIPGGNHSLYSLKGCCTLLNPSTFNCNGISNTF

[2] = target: T1, human concentrative nucleoside transporter 3 (hCNT3); experiment: as above; format: cell-based; remark: listed apart in the source
[3] = target: T2, bovine CNT3 (bCNT3) (Bos taurus, UniProt F1MGR1); experiment: cryo-EM structure; format: binding
T2 sequence (F1MGR1 1-699): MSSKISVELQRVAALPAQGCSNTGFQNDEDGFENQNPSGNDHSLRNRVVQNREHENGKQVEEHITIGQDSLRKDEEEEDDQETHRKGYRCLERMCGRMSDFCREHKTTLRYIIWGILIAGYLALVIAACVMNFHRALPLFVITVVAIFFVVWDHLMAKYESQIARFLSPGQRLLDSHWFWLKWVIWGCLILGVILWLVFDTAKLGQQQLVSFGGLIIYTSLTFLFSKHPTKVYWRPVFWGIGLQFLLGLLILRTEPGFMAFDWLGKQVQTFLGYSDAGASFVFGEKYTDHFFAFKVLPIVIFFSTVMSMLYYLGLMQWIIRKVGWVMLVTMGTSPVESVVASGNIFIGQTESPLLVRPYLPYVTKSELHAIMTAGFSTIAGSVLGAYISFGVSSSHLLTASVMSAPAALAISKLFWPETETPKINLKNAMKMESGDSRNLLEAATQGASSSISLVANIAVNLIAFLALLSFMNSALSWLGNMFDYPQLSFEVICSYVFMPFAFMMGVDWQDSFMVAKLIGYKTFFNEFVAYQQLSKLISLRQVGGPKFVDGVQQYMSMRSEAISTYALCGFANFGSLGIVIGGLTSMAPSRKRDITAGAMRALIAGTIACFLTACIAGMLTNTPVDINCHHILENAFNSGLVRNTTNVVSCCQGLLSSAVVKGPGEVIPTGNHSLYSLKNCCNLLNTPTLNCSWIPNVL

[4] = target: T1, human concentrative nucleoside transporter 3 (hCNT3); experiment: cold competition of [3H]-ribavirin uptake in oocytes; format: cell-based; remark: listed apart in the source
[5] = target: T2, bovine CNT3 (bCNT3); experiment: cryo-EM structure; format: binding; remark: listed apart in the source
[6] = target: the molecule itself; experiment: cryo-EM structure

Molecule: C[C@@]1(F)[C@H](O)[C@@H](CO)O[C@H]1n1ccc(=O)[nH]c1=O [PSI-6206]
cryo-EM structure (2.69 Å), inward-facing state [5]: The quality of the maps enabled unambiguous modeling of nucleoside drugs for NHC, PSI-6206, and ribavirin

B1: Bos taurus concentrative nucleoside transporter 3 (CNT3) (natural protein, UniProt F1MGR1 1-699, looked up)
chain: MSSKISVELQRVAALPAQGCSNTGFQNDEDGFENQNPSGNDHSLRNRVVQNREHENGKQVEEHITIGQDSLRKDEEEEDDQETHRKGYRCLERMCGRMSDFCREHKTTLRYIIWGILIAGYLALVIAACVMNFHRALPLFVITVVAIFFVVWDHLMAKYESQIARFLSPGQRLLDSHWFWLKWVIWGCLILGVILWLVFDTAKLGQQQLVSFGGLIIYTSLTFLFSKHPTKVYWRPVFWGIGLQFLLGLLILRTEPGFMAFDWLGKQVQTFLGYSDAGASFVFGEKYTDHFFAFKVLPIVIFFSTVMSMLYYLGLMQWIIRKVGWVMLVTMGTSPVESVVASGNIFIGQTESPLLVRPYLPYVTKSELHAIMTAGFSTIAGSVLGAYISFGVSSSHLLTASVMSAPAALAISKLFWPETETPKINLKNAMKMESGDSRNLLEAATQGASSSISLVANIAVNLIAFLALLSFMNSALSWLGNMFDYPQLSFEVICSYVFMPFAFMMGVDWQDSFMVAKLIGYKTFFNEFVAYQQLSKLISLRQVGGPKFVDGVQQYMSMRSEAISTYALCGFANFGSLGIVIGGLTSMAPSRKRDITAGAMRALIAGTIACFLTACIAGMLTNTPVDINCHHILENAFNSGLVRNTTNVVSCCQGLLSSAVVKGPGEVIPTGNHSLYSLKNCCNLLNTPTLNCSWIPNVL
stoichiometry N [6]: 3

More lines, main results first:

IC50 [1]: ~400 µM
Molecule: N#C[C@@]1(c2ccc3c(N)ncnn23)O[C@H](CO)[C@@H](O)[C@H]1O [GS4, GS-441524]

IC50 [2]: ~54 µM
Molecule: CC(C)C(=O)OC[C@H]1O[C@@H](n2ccc(NO)nc2=O)[C@H](O)[C@@H]1O [MPV, molnupiravir]

IC50 [4]: ~13 µM
Molecule: O=c1nc(NO)ccn1[C@@H]1O[C@H](CO)[C@@H](O)[C@H]1O [NHC, N^4-hydroxycytidine]
cryo-EM structure (2.74 Å), inward-facing state [3]: This substituent interacts with S380 in the bCNT3-NHC structure
